What all share (format): cell-based
One assay addresses T1, Trpv4_v1 (Sparus aurata, UniProt A0A671Y4W2).
T1 construct: gene trpv4; full-length cDNA from testis in pT7Ts; cRNA expressed alone in Xenopus laevis oocytes; calculated monomer 99 kDa
T1 sequence (A0A671Y4W2 1-876): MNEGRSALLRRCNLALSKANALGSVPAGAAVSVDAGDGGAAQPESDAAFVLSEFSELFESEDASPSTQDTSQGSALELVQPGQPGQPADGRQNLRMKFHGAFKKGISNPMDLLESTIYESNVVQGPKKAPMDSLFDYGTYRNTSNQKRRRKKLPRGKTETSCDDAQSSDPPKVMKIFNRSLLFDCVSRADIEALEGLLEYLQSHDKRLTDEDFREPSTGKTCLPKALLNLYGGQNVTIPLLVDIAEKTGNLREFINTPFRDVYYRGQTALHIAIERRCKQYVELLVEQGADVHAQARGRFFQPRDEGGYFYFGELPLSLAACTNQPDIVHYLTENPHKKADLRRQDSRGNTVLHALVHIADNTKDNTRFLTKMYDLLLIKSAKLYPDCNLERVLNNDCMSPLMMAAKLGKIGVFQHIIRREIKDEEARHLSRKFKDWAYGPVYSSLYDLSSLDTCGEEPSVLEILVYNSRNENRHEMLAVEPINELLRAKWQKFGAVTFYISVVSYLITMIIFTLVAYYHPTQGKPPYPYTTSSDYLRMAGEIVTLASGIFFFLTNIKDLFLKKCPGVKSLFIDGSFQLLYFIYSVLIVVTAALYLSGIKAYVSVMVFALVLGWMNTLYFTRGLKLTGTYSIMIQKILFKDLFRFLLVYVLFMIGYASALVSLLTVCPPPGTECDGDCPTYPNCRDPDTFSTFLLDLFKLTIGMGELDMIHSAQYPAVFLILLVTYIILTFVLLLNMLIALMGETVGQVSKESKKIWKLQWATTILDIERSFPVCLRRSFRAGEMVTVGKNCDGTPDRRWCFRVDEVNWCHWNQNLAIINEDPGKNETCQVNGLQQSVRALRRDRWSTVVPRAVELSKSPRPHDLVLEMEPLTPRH
Put plainly: two-electrode voltage clamp in Xenopus oocytes, constitutive current at -85 mV. A general note: Two-electrode voltage clamp holds a large cell at a set potential and records current.

The target of a further assay is T2, Trpv4_v10 (Sparus aurata, UniProt A0A671Y517).
T2 construct: gene trpv4; synthesized full-length splice-variant cDNA in pT7Ts; cRNA expressed alone in Xenopus laevis oocytes; divergent N-terminus
T2 sequence (A0A671Y517 1-877): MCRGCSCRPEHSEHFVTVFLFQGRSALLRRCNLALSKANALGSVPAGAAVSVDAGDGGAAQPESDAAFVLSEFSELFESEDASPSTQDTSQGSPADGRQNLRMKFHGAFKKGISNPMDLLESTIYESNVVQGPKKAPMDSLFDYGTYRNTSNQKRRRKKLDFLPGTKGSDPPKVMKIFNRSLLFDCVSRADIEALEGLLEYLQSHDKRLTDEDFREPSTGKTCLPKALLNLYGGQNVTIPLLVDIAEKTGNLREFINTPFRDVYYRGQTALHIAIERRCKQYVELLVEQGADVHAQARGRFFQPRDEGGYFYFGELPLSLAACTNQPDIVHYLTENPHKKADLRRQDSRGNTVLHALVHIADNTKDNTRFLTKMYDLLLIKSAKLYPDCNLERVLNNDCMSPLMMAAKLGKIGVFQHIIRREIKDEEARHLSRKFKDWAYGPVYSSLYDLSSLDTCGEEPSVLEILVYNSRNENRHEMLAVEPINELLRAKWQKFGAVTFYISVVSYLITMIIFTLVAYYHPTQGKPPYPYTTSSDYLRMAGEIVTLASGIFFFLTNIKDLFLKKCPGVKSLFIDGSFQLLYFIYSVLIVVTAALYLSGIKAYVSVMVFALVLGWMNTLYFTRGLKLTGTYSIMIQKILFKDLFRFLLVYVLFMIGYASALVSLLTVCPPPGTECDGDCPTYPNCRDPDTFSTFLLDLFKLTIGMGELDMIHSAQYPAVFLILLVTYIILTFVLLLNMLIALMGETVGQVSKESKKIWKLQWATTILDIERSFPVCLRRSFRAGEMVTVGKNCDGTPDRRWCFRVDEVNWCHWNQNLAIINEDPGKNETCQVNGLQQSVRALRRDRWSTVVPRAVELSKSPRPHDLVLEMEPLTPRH
The description is as above.

The target of a further assay is T3, Aqp4a-M43 (Sparus aurata, UniProt A0A678R2D9).
T3 construct: gene Aqp4; short isoform starting at Met-43, 31 kDa; cRNA expressed in Xenopus laevis oocytes
T3 sequence (A0A678R2D9 entry or part of it): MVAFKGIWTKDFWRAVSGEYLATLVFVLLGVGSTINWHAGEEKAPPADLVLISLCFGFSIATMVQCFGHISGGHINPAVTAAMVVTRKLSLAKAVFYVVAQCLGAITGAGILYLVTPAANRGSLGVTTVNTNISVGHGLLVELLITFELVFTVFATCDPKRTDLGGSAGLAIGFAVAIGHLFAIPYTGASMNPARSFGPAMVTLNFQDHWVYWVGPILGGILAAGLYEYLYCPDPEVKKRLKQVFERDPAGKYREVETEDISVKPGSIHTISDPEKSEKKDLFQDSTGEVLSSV
As to the kind of experiment: oocyte swelling assay (osmotic water permeability Lp). To be noted: 5 min pretreatment, hyposmotic challenge -100 mOsm, pH 7.4.

Setting [1] is: 5 min exposure, isosmotic 220 mOsm, pH 7.4, room temperature.

In general, inhibition refers to how much of the control response was suppressed.

For the compound `N.N.N.N.N.N.N.N.N.N.N.N.N.N.[Cl-].[Cl-].[Cl-].[Cl-].[Cl-].[Cl-].[O-2].[O-2].[Ru+3].[Ru+3].[Ru+4]` [ruthenium red], the figures for the “% inhibition at 10 μM” value on Trpv4_v1 (setting [1]) and on Trpv4_v10 (setting [1]) were ~ 28% and ~ 5%, respectively.

`O=C(Nc1nncs1)c1cccnc1` [TGN-020, 2-(Nicotinamide)-1,3,4-thiadiazole]: on Aqp4a-M43, the “% reduction of Lp at 20 μM” value was ~ 82%. With `CC(C)NCCN(C(C)C)S(=O)(=O)c1ccc(Cl)cc1Cl` [RN-1734], the inhibition at 100 µM was about 40% against Trpv4_v1 and about 9% on Trpv4_v10.

For the compound `Cc1c(C(=O)Nc2cccc(C(F)(F)F)c2)cc(-c2ccccc2)n1CCCN1CCOCC1` [HC-067047], the inhibition at 10 µM against Trpv4_v1 and against Trpv4_v10 was about 8% each time.

The values are drawn from publication PMC11335209, “Aqp4a and Trpv4 mediate regulatory cell volume increase for swimming maintenance of marine fish spermatozoa” (Cellular and Molecular Life Sciences: CMLS, 2024).
